The record followed here is ChEMBL document CHEMBL3763101, “Gibbilimbol analogues as antiparasitic agents--Synthesis and biological activity against Trypanosoma cruzi and Leishmania (L.) infantum” (Bioorg Med Chem Lett, 2016).

Broadly, the CC50 is the concentration that lowers cell viability or growth by half. What is called pIC50 is the negative decadic logarithm of the IC50, by convention in mol/L.

SMILES strings stand for the structures. pIC50: −log10 of the molar value. Where only a bound is given, the exact number is not on record here.

Data set [1] can be described thus: Cytotoxicity against mouse NCTC-929 cells assessed as cell viability after 48 hrs by MTT assay. Format: cell-based. A general note: Tetrazolium dyes change colour on reduction, which living cells bring about.
In data set [2] the test system is Trypanosoma cruzi. In words: Antiparasitic activity against amastigote stage of Trypanosoma cruzi Y. Format: functional, organism-based. The note with it: for pIC50: Trypanosoma cruzi, Y, read-out: IC50.
Data set [3] deals with Leishmania infantum. The data set can be described thus: Antiparasitic activity against amastigote stage of Leishmania infantum infected in BALB/c mouse peritoneal macrophages assessed as reduction of parasite burden after 120 hrs by Giemsa staining-based light microscopic analysis. The data set is classed as functional, organism-based. The note with it: for pIC50: Leishmania infantum, 120 h, read-out: IC50.

A short description of data set [4]: Selectivity index, ratio of CC50 for mouse […] cells to IC50 for Trypanosoma cruzi Y trypomastigotes. The data set is classed as functional.
Data set [5] is described as follows: Selectivity index, ratio of CC50 for mouse […] cells to IC50 for Trypanosoma cruzi Y amastigotes. Format: functional.
Data set [6] concerns Leishmania infantum. In words: Antiparasitic activity against promastigote stage of Leishmania infantum assessed as parasite viability after 24 hrs by MTT assay. Format: functional, organism-based. The conditions noted are these: for pIC50: Leishmania infantum, 24 h, read-out: IC50.
Data set [7] in a line: Selectivity index, ratio of CC50 for mouse […] cells to IC50 for Leishmania infantum promastigotes. Format: functional, NCTC-929.
The subject of data set [8] is Trypanosoma cruzi. In words: Antiparasitic activity against trypomastigote stage of Trypanosoma cruzi Y assessed as parasite viability after 24 hrs by MTT assay. Format: functional, organism-based. The conditions noted are these: for pIC50: Trypanosoma cruzi, Y, 24 h, read-out: IC50.
The nature of data set [9]: Selectivity index, ratio of CC50 for mouse […] cells to IC50 for Leishmania infantum amastigotes. Format: functional.
The subject of data set [10] is Leishmania infantum. In words: Potency index, ratio of gibbilimbol B IC50 to compound IC50 for amastigote stage of Leishmania infantum infected in BALB/c mouse peritoneal macrophages. Format: functional.

Turning to `CCCCCCCC(=O)/C=C/c1ccc(O)cc1`, the CC50 at 48 h in data set [1] came out at 82.8 µM. Also, the pIC50 in data set [2] is 4.65; in data set [6], 4.08; in data set [8] it was 4.93. In addition, the IC50 entry in data set [3] is given as “Not Active”. Moreover, the “Ratio CC50/IC50” value in data set [4] was 7; in data set [5], 3.7; in data set [7], 1.

`CCCCNCc1ccc(O)cc1`: the half-maximal cytotoxic concentration (CC50) at 48 h in data set [1] was greater than 300 µM. Further, the IC50 entry in data set [2], in data set [3] and in data set [8] was “Not Active” throughout. In addition, the negative logarithm of the IC50 (pIC50) in data set [6] was 4.50. Further, the “Ratio CC50/IC50” value in data set [7] is greater than 9.5.

In the case of `CCCCCCCCNC(=O)c1ccc(O)cc1`, in [1], the CC50 at 48 h was found to be 45.4 µM. For the same compound, the IC50 entry in data set [2] and in data set [3] was “Not Active” in each case. Besides, the “Ratio CC50/IC50” value in data set [4] came to 1.7; in data set [7], 1. Moreover, the pIC50 in [6] is 4.35; in [8] it was 4.58.

On to `O=C(Cn1ccnc1[N+](=O)[O-])NCc1ccccc1` [BENZNIDAZOLE], for which the CC50 at 48 h in [1] stood at 270 µM. The pIC50 in [2] is 3.64.

For the compound `CCCCCCCC/N=C/c1ccc(O)cc1`, the CC50 at 48 h in data set [1] amounted to 99.2 µM. Further, the IC50 entry in data set [2], in [3] and in data set [8] was “Not Active” each time. The pIC50 in [6] is 4.70. The “Ratio CC50/IC50” value in [7] was found to be 5.

On to `CCCCCCCCCCCCCCCCOP(=O)([O-])OCC[N+](C)(C)C` [MILTEFOSINE], for which the CC50 at 48 h in data set [1] is 241 µM. In addition, the negative-log IC50 (pIC50) was 4.79 in [3] and 4.78 in data set [6]. In addition, the “Ratio CC50/IC50” value in data set [9] was found to be 14.7; in data set [7], 14.5.

`CCCCCCCC(O)/C=C/c1ccc(O)cc1` (centres undefined): the CC50 at 48 h in [1] was 49.5 µM. Besides, the IC50 result in data set [2] and in data set [3] was “Not Active” throughout. For the same compound, the “Ratio CC50/IC50” value in [4] worked out at 8.1; in data set [7] it was 0.4. Also, the pIC50 in data set [6] is 3.90; in data set [8], 5.21.

On to `CCCCCCCCNCc1ccc(O)cc1`, for which the CC50 at 48 h in data set [1] amounted to 23.5 µM. Besides, the pIC50 was 5.26 in data set [2], 5.74 in data set [3], 4.54 in data set [6] and 4.77 in [8]. In addition, the “Ratio IC50” value in data set [10] was found to be 52. The “Ratio CC50/IC50” value in [4] came out at 1.4; in data set [5], 4.3; in [9], 13.1; in data set [7], 0.8.

Consider `CCCCCCCCOC(=O)c1ccc(O)cc1`, for which the CC50 at 48 h in data set [1] was determined as 130 µM. Also, the IC50 result in data set [2] and in [3] was “Not Active” throughout. For the same compound, the “Ratio CC50/IC50” value in data set [4] was 29; in data set [7], 1.1. Moreover, the pIC50 is 3.91 in [6] and 5.35 in data set [8].

With `CCCCOC(=O)c1ccc(O)cc1` [BUTYLPARABEN], the CC50 at 48 h in data set [1] came out at 168 µM. Moreover, in data set [2], the pIC50 is 4.58. Further, the IC50 entry in [3], in data set [6] and in data set [8] was “Not Active” each time. In addition, in data set [5], the “Ratio CC50/IC50” value is listed as 6.4.
